# Test results published in patent US7943598B2, “Use of organic glucosamine salts” (Bioiberica, S.A., priority 2004, dated 2011).
# Tested on: aggrecan degradation induced with IL-1α
# Experiment: Inhibition of aggrecan degradation (aggrecanolysis) induced with IL-1α in LTC chondrocyte culture, Western Blot with anti-G1 antibody
# Assay type: cell-based, rat
# Details: for inhibition of aggrecanolysis induced by IL-1α vs. the control: LTC rat chondrosarcoma chondrocyte culture, 10 ng/mL IL-1α, 4 days, control = culture with only IL-1α
# Method: The study of the inhibition of aggrecan degradation was performed on a chondrocyte culture from a rat chondrosarcoma cell line. This cell line, called LTC, deposits an extracellular matrix similar to the cartilage's, expresses all the components of the aggrecanase system, generates the fragmentation of aggrecan by said enzymes, and responds to known aggrecanolysis inhibitors such as glucosamine hydrochloride. The assays were performed on chondrocyte cultures from a rat chondrosarcoma cell line called LTC. The LTC cells were kept in a monolayer culture in a Gibco DMEM medium (Dulbecco's Modification of Eagle's Medium) (containing 4.5 g/L of glucose) supplemented with sodium bicarbonate (3.7 g/L), glutamine (2 mM), ascorbic acid (50 mg/L), gentamicin (50 mg/L), and bovine fetal serum Hyalone (10%), at pH 7.4. The confluent LTC cell cultures were trypsinised and 40,000 cells per 0.5 mL of culture were seeded in 48-well plates. They were maintained for 5 days, during which time they deposited 15-30 μg of glycosaminoglycans (GAG) in each well. The medium was separated, the cell membranes were washed by adding 5×1 mL of a catabolic medium {DMEM+4.5 g/L glucose supplemented with sodium bicarbonate (3.7 g/L), glutamine (2 mM), and 10 ng/mL of IL-1α (interleukin-1α) at pH 7.4}. Subsequently, the cultures were kept in 200 μL of this medium, supplemented or not with glucosamine hydrogen malate, for 4 days, without changing the medium, at 37° C. In order to verify the effect of glucosamine hydrogen malate on aggrecan degradation, a Western Blot was performed. For the Western Blot, 20 μL of 50 mM tris-acetate at pH 7.3 were added to each well. The cultures (medium+cell membrane) were deglycosylated with 50 mU of chondroitinase ABC at 37° C. for 4 hours. Subsequently, the samples in each well were recovered and centrifuged at 1,460 g for 10 minutes. 25 μL-fractions of the supernatant were separated by electrophoresis (gel gradient 8-12% SDS PAGE) and analysed by means of a Western Blot using anti-G1 antibody. The antiserum was used at a 1:5,000 dilution and the peroxidase-conjugated goat anti-(rabbit IgG) was detected by means of the Amersham ECL Kit. The exposure time ranged between 5 seconds and 5 minutes in order to obtain quantifiable images. The Western Blots were scanned and the bands were quantified by means of the SCION image analysis software. In relation to the described procedure, see: J. D. Sandy et al., Biochem. J. 335, 59-66 (1998).
Structure (SMILES),inhibition of aggrecanolysis induced by IL-1α vs. the control (1 mM) [%],inhibition of aggrecanolysis induced by IL-1α vs. the control (10 mM) [%],"effectiveness in inhibiting aggrecanolysis compared with glucosamine hydrochloride (FIG. 1) (10 mM, LTC culture with IL-1α)"
"Cl.N[C@H]1C(O)O[C@H](CO)[C@@H](O)[C@@H]1O (some centres unmarked) [glucosamine hydrochloride, reference compound]",83±4.9,53±5.8,–
"N[C@H]1C(O)O[C@H](CO)[C@@H](O)[C@@H]1O.O=C(O)CC(O)C(=O)O (some centres unmarked) [glucosamine hydrogen malate, Glucosamine Hydrogen Malate]",95±17.5,32±3.7,significantly more effective than glucosamine hydrochloride
